# Measurements: patent US7091038B2, “Ecdysone receptor-based inducible gene expression system” (RheoGene, Inc., priority 2000, dated 2006)
# Legend:
# GAL4EcR + VP16USP = assay: Transactivation of reporter gene through switch 1.2 in 3T3 cells; assay type: cell-based, Choristoneura fumiferana; details: switch 1.2, pGAL4RELuc
# Experimental: This construct was prepared in the same way as in switch 1.1 above except MmRXRDEF was replaced with the D, E and F domains from spruce budworm USP (“CfUSPDEF”; SEQ ID NO: 67). The constructs used in this example are similar to those disclosed in U.S. Pat. No. 5,880,333 except that Choristoneura fumiferana USP rather than Drosophila melanogaster USP was utilized.
# (§1) The cells were harvested and reporter activity was assayed.
# (§2) The cells were plated when they reached 50% confluency.
# (§3) Cells were harvested 24–48 hr after adding ligands. […] Twenty μl of lysate was assayed.
# GAL4RXR + VP16CfEcR = assay: Transactivation of reporter gene through switch 1.3 in 3T3 cells
# Excerpt: In various cellular backgrounds, including mammalian cells, insect ecdysone receptor (EcR) heterodimerizes with retinoid X receptor (RXR) and, upon binding of ligand, transactivates genes under the control of ecdysone response elements. […] The prepared receptor constructs comprise a ligand binding domain of EcR and of RXR or of USP; a DNA binding domain of GAL4 or of EcR; and an activation domain of VP16. The reporter constructs include a reporter gene, luciferase or LacZ, operably linked to a synthetic promoter construct that comprises either GAL4 or EcR/USP binding sites (response elements). Various combinations of these receptor and reporter constructs were cotransfected into CHO, NIH3T3, CV1 and 293 cells.
# The same procedures described for CHO cells were followed for 3T3 cells as well with two modifications. The cells were plated when they reached 50% confluency. 125,000 or 50,000 or 25,000 cells were plated per well of 6- or 12- or 24-well plates respectively. […] The ligand treatments were performed as described in the CHO cell section above.
# DmVgRXR + MmRXR = DmVgRXR + MmRXR (Drosophila melanogaster, UniProt P34021, E282G/G283S/G286V); assay: Transactivation of reporter gene through switch 1.8 in CHO cells; assay type: cell-based, Drosophila melanogaster; Mus musculus; design: host or cells: CHO, NIH3T3, 293 or CV1 cells; details: switch 1.8, pIND(SP1)LacZ
# Excerpt: This system was purchased from Invitrogen Corp., Carlsbad, California. It comprises a Drosophila melanogaster EcR (“DmEcR”) with a modified DNABD fused to VP16AD and placed under the control of a CMV promoter (SEQ ID NO: 68). Full length MmRXR (SEQ ID NO: 62) was placed under the control of the RSV promoter (SEQ ID NO: 69). The reporter, pIND(SP1)LacZ, contains five copies of a modified ecdysone response element (“EcRE”, E/GRE), three copies of an SPI enhancer, and a minimal heat shock promoter, all of which were placed upstream to the LacZ reporter gene.
# as §1, §3
# CfVgRXR + MmRXR = assay: Transactivation of reporter gene through switch 1.9 in CV1 cells; assay type: cell-based, Choristoneura fumiferana; Mus musculus; details: switch 1.9, pIND(SP1)LacZ
# Experimental: This example was prepared in the same way as switch 1.8 except DmEcR was replaced with a truncated CfEcR comprising a partial A/B domain and the complete CDEF domains [SEQ ID NO: 70 (polynucleotide) and SEQ ID NO: 71 (polypeptide)].
# as §1, §2
# (§4) The same procedures described for NIH3T3 cells were followed for CV1 cells
# as §3
# CfVgRXR = assay: Transactivation of reporter gene through switch 1.10 in CV1 cells; assay type: cell-based, Choristoneura fumiferana; details: switch 1.10, pIND(SP1)LacZ
# Experimental: This example was prepared in the same way as switch 1.9 except MmRXR (SEQ ID NO: 62) was deleted.
# as §1, §2, §4, §3
# Chain of DmVgRXR + MmRXR (P28700 whole entry, the tested form may be a part): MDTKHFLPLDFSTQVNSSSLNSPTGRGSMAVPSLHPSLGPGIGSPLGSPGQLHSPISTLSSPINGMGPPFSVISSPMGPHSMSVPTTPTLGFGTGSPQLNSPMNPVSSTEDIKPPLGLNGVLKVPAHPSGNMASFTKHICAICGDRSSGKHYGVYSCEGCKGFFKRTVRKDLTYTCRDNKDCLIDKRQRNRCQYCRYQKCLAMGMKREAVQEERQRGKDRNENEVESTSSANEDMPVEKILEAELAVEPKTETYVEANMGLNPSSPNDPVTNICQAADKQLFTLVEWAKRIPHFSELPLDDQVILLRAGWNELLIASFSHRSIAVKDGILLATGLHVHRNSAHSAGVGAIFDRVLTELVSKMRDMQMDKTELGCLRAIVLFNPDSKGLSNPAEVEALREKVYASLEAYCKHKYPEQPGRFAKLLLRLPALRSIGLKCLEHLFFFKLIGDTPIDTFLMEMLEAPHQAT
# Chain of DmVgRXR + MmRXR (P34021 whole entry E282G/G283S/G286V, the tested form may be a part): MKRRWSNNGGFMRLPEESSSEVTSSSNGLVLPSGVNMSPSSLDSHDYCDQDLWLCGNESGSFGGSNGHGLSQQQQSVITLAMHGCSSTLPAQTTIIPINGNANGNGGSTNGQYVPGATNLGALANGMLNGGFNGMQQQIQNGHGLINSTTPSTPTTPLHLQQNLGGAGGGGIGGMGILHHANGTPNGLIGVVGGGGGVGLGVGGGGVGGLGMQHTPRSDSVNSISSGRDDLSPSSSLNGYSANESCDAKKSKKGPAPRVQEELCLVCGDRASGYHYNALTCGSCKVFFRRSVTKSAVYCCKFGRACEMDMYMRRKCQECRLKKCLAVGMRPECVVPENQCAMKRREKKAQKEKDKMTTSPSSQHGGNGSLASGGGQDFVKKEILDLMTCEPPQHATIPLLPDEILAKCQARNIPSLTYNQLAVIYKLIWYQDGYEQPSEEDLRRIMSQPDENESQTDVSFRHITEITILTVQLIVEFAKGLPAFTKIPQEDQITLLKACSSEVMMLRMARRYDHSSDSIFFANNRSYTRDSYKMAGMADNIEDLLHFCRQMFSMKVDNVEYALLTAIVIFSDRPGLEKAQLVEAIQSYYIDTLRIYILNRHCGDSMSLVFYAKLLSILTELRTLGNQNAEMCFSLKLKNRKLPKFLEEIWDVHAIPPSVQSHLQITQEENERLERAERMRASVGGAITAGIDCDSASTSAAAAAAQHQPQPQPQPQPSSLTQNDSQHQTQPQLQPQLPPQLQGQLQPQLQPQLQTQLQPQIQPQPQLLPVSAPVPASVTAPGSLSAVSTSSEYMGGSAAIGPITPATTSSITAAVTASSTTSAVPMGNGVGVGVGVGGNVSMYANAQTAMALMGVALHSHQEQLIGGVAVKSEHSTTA
smiles,measurement,setting,value
"CCc1c(OC)cccc1C(=O)NN(C(=O)c1cc(C)cc(C)c1)C(C)(C)C [N-(2-ethyl-3-methoxybenzoyl)-N′-(3,5-dimethylbenzoyl)-N′-t-butylhydrazine]","Mean Fold Activation Through N-(2-ethyl-3-methoxybenzoyl)-N′-(3,5-dimethylbenzoyl)-N′-t-butylhydrazine",GAL4EcR + VP16USP,2 fold
same,Mean Fold Induction at 1.0 μM Concentration,"GAL4RXR + VP16CfEcR; GAL4MmRXRDEF/VP16CfEcRCDEF (switch 1.3), 1.0 μM ligand",71 fold
same,"Mean Fold Activation Through N-(2-ethyl-3-methoxybenzoyl)-N′-(3,5-dimethylbenzoyl)-N′-t-butylhydrazine","GAL4RXR + VP16CfEcR; switch 1.3, pGAL4RELuc",47 fold
same,"Mean Fold Activation with 50 μM N-(2-ethyl-3-methoxybenzoyl)-N′-(3,5-dimethylbenzoyl)-N′-t-butylhydrazine",DmVgRXR + MmRXR,14 fold
same,"Mean Fold Activation Through N-(2-ethyl-3-methoxybenzoyl)-N′-(3,5-dimethylbenzoyl)-N′-t-butylhydrazine",CfVgRXR + MmRXR,7 fold
same,"Mean Fold Activation Through N-(2-ethyl-3-methoxybenzoyl)-N′-(3,5-dimethylbenzoyl)-N′-t-butylhydrazine",CfVgRXR,1 fold
